Legend:
velvetleaf [1] = assay: Test Example 5: herbicidal effect by foliage application, plastic box (Table 20, symbol M); format: in vivo, velvetleaf (Abutilon theophrasti); conditions: foliage application, 320 g/ha
How it was run: (§1)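 Sow seeds spot-wise in sterilized diluvial soil; cover with ~1.5 cm soil. Grow 14 days in greenhouse, 25° C. to 30° C. Spray foliage with emulsion diluted to predetermined amount. Rate effect after 3 weeks.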

lambsquarters [2] = assay: Test Example 4: herbicidal effect by soil treatment (Table 19, symbol O); format: in vivo, lambsquarters (Chenopodium album)
How it was run: (§2)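 Applied as a water-diluted emulsion, the compound was sprayed onto soil covering newly sown seeds. Evaluation came three weeks after application, in a greenhouse held at 25° C. to 30° C.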

green foxtail [3] = assay: Test Example 5: herbicidal effect by foliage application, plastic box (Table 20, symbol G); format: in vivo, green foxtail (Setaria viridis); conditions: foliage application, 320 g/ha
How it was run: as §1

false cleavers = assay: Test Example 4: herbicidal effect by soil treatment (Table 19, symbol Q); format: in vivo, false cleavers (Galium spurium)
How it was run: as §2

Chinese sprangletop = assay: Test Example 3: herbicidal effect by foliage application, Wagner pot (Table 18, symbol D); format: in vivo, chinese sprangletop (Leptochloa chinensis)
How it was run: (§3)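 Plants were sown in alluvial soil held under 0.1–0.5 cm standing water and grown 14 days in a greenhouse at 25–30 °C. An emulsifiable formulation, water-diluted to the set dose, was then sprayed onto the foliage, and effects were scored three weeks later using previously defined criteria.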

wild oat [4] = assay: Test Example 4: herbicidal effect by soil treatment (Table 19, symbol I); format: in vivo, wild oat (Avena fatua)
How it was run: as §2

blackgrass [5] = assay: Test Example 5: herbicidal effect by foliage application, plastic box (Table 20, symbol J); format: in vivo, blackgrass (Alopecurus myosuroides); conditions: foliage application, 320 g/ha
How it was run: as §1

Italian ryegrass [6] = assay: Test Example 4: herbicidal effect by soil treatment (Table 19, symbol K); format: in vivo, Italian ryegrass (Lolium multiflorum)
How it was run: as §2

lambsquarters [7] = assay: Test Example 5: herbicidal effect by foliage application, plastic box (Table 20, symbol O); format: in vivo, lambsquarters (Chenopodium album); conditions: foliage application, 320 g/ha
How it was run: as §1

Italian ryegrass [8] = assay: Test Example 5: herbicidal effect by foliage application, plastic box (Table 20, symbol K); format: in vivo, Italian ryegrass (Lolium multiflorum); conditions: foliage application, 320 g/ha
How it was run: as §1

windgrass [9] = assay: Test Example 4: herbicidal effect by soil treatment (Table 19, symbol L); format: in vivo, windgrass (Apera spica-venti)
How it was run: as §2

barnyard grass [10] = assay: Test Example 5: herbicidal effect by foliage application, plastic box (Table 20, symbol H); format: in vivo, barnyard grass (Echinochloa crus-galli); conditions: foliage application, 320 g/ha
How it was run: as §1

barnyard grass [11] = assay: Test Example 4: herbicidal effect by soil treatment (Table 19, symbol H); format: in vivo, barnyard grass (Echinochloa crus-galli)
How it was run: as §2

velvetleaf [12] = assay: Test Example 4: herbicidal effect by soil treatment (Table 19, symbol M); format: in vivo, velvetleaf (Abutilon theophrasti)
How it was run: as §2

southern crabgrass [13] = assay: Test Example 4: herbicidal effect by soil treatment (Table 19, symbol F); format: in vivo, southern crabgrass (Digitaria ciliaris)
How it was run: as §2

chickweed = assay: Test Example 4: herbicidal effect by soil treatment (Table 19, symbol P); format: in vivo, common chickweed (Stellaria media)
How it was run: as §2

green foxtail [14] = assay: Test Example 4: herbicidal effect by soil treatment (Table 19, symbol G); format: in vivo, green foxtail (Setaria viridis)
How it was run: as §2

redroot pigweed = assay: Test Example 4: herbicidal effect by soil treatment (Table 19, symbol N); format: in vivo, redroot pigweed (Amaranthus retroflexus)
How it was run: as §2

persian speedwell [15] = assay: Test Example 4: herbicidal effect by soil treatment (Table 19, symbol R); format: in vivo, Persian speedwell (Veronica persica)
How it was run: as §2

rice flat sedge = assay: Test Example 3: herbicidal effect by foliage application, Wagner pot (Table 18, symbol E); format: in vivo, rice flat sedge (Cyperus iria)
How it was run: as §3

barnyard grass [16] = assay: Test Example 3: herbicidal effect by foliage application, Wagner pot (Table 18, symbol H); format: in vivo, barnyard grass (Echinochloa crus-galli)
How it was run: as §3

windgrass [17] = assay: Test Example 5: herbicidal effect by foliage application, plastic box (Table 20, symbol L); format: in vivo, windgrass (Apera spica-venti); conditions: foliage application, 320 g/ha
How it was run: as §1

southern crabgrass [18] = assay: Test Example 5: herbicidal effect by foliage application, plastic box (Table 20, symbol F); format: in vivo, southern crabgrass (Digitaria ciliaris); conditions: foliage application, 320 g/ha
How it was run: as §1

blackgrass [19] = assay: Test Example 4: herbicidal effect by soil treatment (Table 19, symbol J); format: in vivo, blackgrass (Alopecurus myosuroides)
How it was run: as §2

wild oat [20] = assay: Test Example 5: herbicidal effect by foliage application, plastic box (Table 20, symbol I); format: in vivo, wild oat (Avena fatua); conditions: foliage application, 320 g/ha
How it was run: as §1

persian speedwell [21] = assay: Test Example 5: herbicidal effect by foliage application, plastic box (Table 20, symbol R); format: in vivo, Persian speedwell (Veronica persica); conditions: foliage application, 320 g/ha
How it was run: as §1

[22] = amount of applied herbicide 320 g/ha

For `Cc1nn(C)c(=O)c(-c2c(-c3ccc(CSCC(F)(F)F)cc3)sc3ccccc23)c1O` [1-249], the “effect on velvetleaf (M)” value (velvetleaf [1]; 3 weeks after application) was 5 (Herbicidal rate of 90% or more (almost completely withered)), the “O: lambsquarters, herbicidal effect rating” value (lambsquarters [2]; AAH 320 g/ha) was 3 (Herbicidal rate of 40% or more and less than 70%) and the “effect on green foxtail (G)” value (green foxtail [3]; 3 weeks after application) was 4 (Herbicidal rate of 70% or more and less than 90%). For the same molecule, the “Q: false cleavers, herbicidal effect rating” value (false cleavers; AAH 320 g/ha) was 0 (Herbicidal rate of 5% or less (almost no effect)), the “herbicidal effect on D (Chinese sprangletop), rating 0-5” value (Chinese sprangletop; 320 g/ha) was 3 (Herbicidal rate of 40% or more and less than 70%) and the “I: wild oat, herbicidal effect rating” value (wild oat [4]; AAH 320 g/ha) was 0 (Herbicidal rate of 5% or less (almost no effect)). For the same molecule, the “effect on blackgrass (J)” value (blackgrass [5]; 3 weeks after application) was 0 (Herbicidal rate of 5% or less (almost no effect)), the “K: Italian ryegrass, herbicidal effect rating” value (Italian ryegrass [6]; AAH 320 g/ha) was 3 (Herbicidal rate of 40% or more and less than 70%) and the “effect on lambsquarters (O)” value (lambsquarters [7]; 3 weeks after application) was 5 (Herbicidal rate of 90% or more (almost completely withered)). The “effect on Italian ryegrass (K)” value (Italian ryegrass [8]; 3 weeks after application) was 4 (Herbicidal rate of 70% or more and less than 90%), the “L: windgrass, herbicidal effect rating” value (windgrass [9]; AAH 320 g/ha) was 0 (Herbicidal rate of 5% or less (almost no effect)) and the “effect on barnyard grass (H)” value (barnyard grass [10]; 3 weeks after application) was 4 (Herbicidal rate of 70% or more and less than 90%). For the same molecule, the “H: barnyard grass, herbicidal effect rating” value (barnyard grass [11]; AAH 320 g/ha) was 0 (Herbicidal rate of 5% or less (almost no effect)), the “M: velvetleaf, herbicidal effect rating” value (velvetleaf [12]; AAH 320 g/ha) was 0 (Herbicidal rate of 5% or less (almost no effect)) and the “F: southern crabgrass, herbicidal effect rating” value (southern crabgrass [13]; AAH 320 g/ha) was 0 (Herbicidal rate of 5% or less (almost no effect)). For the same molecule, the “P: chickweed, herbicidal effect rating” value (chickweed; AAH 320 g/ha) was 0 (Herbicidal rate of 5% or less (almost no effect)), the “G: green foxtail, herbicidal effect rating” value (green foxtail [14]; AAH 320 g/ha) was 0 (Herbicidal rate of 5% or less (almost no effect)) and the “N: redroot pigweed, herbicidal effect rating” value (redroot pigweed; AAH 320 g/ha) was 3 (Herbicidal rate of 40% or more and less than 70%). For the same molecule, the “R: persian speedwell, herbicidal effect rating” value (persian speedwell [15]; AAH 320 g/ha) was 4 (Herbicidal rate of 70% or more and less than 90%), the “herbicidal effect on E (rice flat sedge), rating 0-5” value (rice flat sedge; 320 g/ha) was 3 (Herbicidal rate of 40% or more and less than 70%) and the “herbicidal effect on H (barnyard grass), rating 0-5” value (barnyard grass [16]; 320 g/ha) was 5 (Herbicidal rate of 90% or more (almost completely withered)). For the same molecule, the “effect on windgrass (L)” value (windgrass [17]; 3 weeks after application) was 0 (Herbicidal rate of 5% or less (almost no effect)), the “effect on southern crabgrass (F)” value (southern crabgrass [18]; 3 weeks after application) was 4 (Herbicidal rate of 70% or more and less than 90%) and the “J: blackgrass, herbicidal effect rating” value (blackgrass [19]; AAH 320 g/ha) was 0 (Herbicidal rate of 5% or less (almost no effect)). The “effect on wild oat (I)” value (wild oat [20]; 3 weeks after application) was 0 (Herbicidal rate of 5% or less (almost no effect)) and the “effect on persian speedwell (R)” value (persian speedwell [21]; 3 weeks after application) was 5 (Herbicidal rate of 90% or more (almost completely withered)).

With `CCSc1ccc(-c2oc3ccc(F)cc3c2-c2c(O)c(C)nn(C)c2=O)cc1` [9-039] the “herbicidal effect on velvetleaf (M)” value (velvetleaf [1]; three weeks after application) was 5 (Herbicidal rate of 90% or more (almost completely withered)), the “O: lambsquarters, herbicidal effect grade” value (lambsquarters [2]; [22]) was 4 (Herbicidal rate of 70% or more and less than 90%) and the “herbicidal effect on green foxtail (G)” value (green foxtail [3]; three weeks after application) was 5 (Herbicidal rate of 90% or more (almost completely withered)). For the same molecule, the “Q: false cleavers, herbicidal effect grade” value (false cleavers; [22]) was 0 (Herbicidal rate of 5% or less (almost no effect)), the “Herbicidal effect on D (Chinese sprangletop), foliage application” value (Chinese sprangletop; [22]) was 1 (Herbicidal rate of 5% or more and less than 20%) and the “I: wild oat, herbicidal effect grade” value (wild oat [4]; [22]) was 0 (Herbicidal rate of 5% or less (almost no effect)). For the same molecule, the “herbicidal effect on blackgrass (J)” value (blackgrass [5]; three weeks after application) was 4 (Herbicidal rate of 70% or more and less than 90%), the “K: Italian ryegrass, herbicidal effect grade” value (Italian ryegrass [6]; [22]) was 5 (Herbicidal rate of 90% or more (almost completely withered)) and the “herbicidal effect on lambsquarters (O)” value (lambsquarters [7]; three weeks after application) was 5 (Herbicidal rate of 90% or more (almost completely withered)). For the same molecule, the “herbicidal effect on Italian ryegrass (K)” value (Italian ryegrass [8]; three weeks after application) was 5 (Herbicidal rate of 90% or more (almost completely withered)), the “L: windgrass, herbicidal effect grade” value (windgrass [9]; [22]) was 0 (Herbicidal rate of 5% or less (almost no effect)) and the “herbicidal effect on barnyard grass (H)” value (barnyard grass [10]; three weeks after application) was 3 (Herbicidal rate of 40% or more and less than 70%). The “H: barnyard grass, herbicidal effect grade” value (barnyard grass [11]; [22]) was 2 (Herbicidal rate of 20% or more and less than 40%), the “M: velvetleaf, herbicidal effect grade” value (velvetleaf [12]; [22]) was 3 (Herbicidal rate of 40% or more and less than 70%) and the “F: southern crabgrass, herbicidal effect grade” value (southern crabgrass [13]; [22]) was 4 (Herbicidal rate of 70% or more and less than 90%). For the same molecule, the “P: chickweed, herbicidal effect grade” value (chickweed; [22]) was 3 (Herbicidal rate of 40% or more and less than 70%), the “G: green foxtail, herbicidal effect grade” value (green foxtail [14]; [22]) was 5 (Herbicidal rate of 90% or more (almost completely withered)) and the “N: redroot pigweed, herbicidal effect grade” value (redroot pigweed; [22]) was 5 (Herbicidal rate of 90% or more (almost completely withered)). The “R: persian speedwell, herbicidal effect grade” value (persian speedwell [15]; [22]) was 5 (Herbicidal rate of 90% or more (almost completely withered)), the “Herbicidal effect on E (rice flat sedge), foliage application” value (rice flat sedge; [22]) was 5 (Herbicidal rate of 90% or more (almost completely withered)) and the “Herbicidal effect on H (barnyard grass), foliage application” value (barnyard grass [16]; [22]) was 5 (Herbicidal rate of 90% or more (almost completely withered)). For the same molecule, the “herbicidal effect on windgrass (L)” value (windgrass [17]; three weeks after application) was 5 (Herbicidal rate of 90% or more (almost completely withered)), the “herbicidal effect on southern crabgrass (F)” value (southern crabgrass [18]; three weeks after application) was 5 (Herbicidal rate of 90% or more (almost completely withered)) and the “J: blackgrass, herbicidal effect grade” value (blackgrass [19]; [22]) was 0 (Herbicidal rate of 5% or less (almost no effect)). For the same molecule, the “herbicidal effect on wild oat (I)” value (wild oat [20]; three weeks after application) was 4 (Herbicidal rate of 70% or more and less than 90%) and the “herbicidal effect on persian speedwell (R)” value (persian speedwell [21]; three weeks after application) was 5 (Herbicidal rate of 90% or more (almost completely withered)).

From patent publication US20230085307A1, “PYRIDAZINONE COMPOUND AND HERBICIDE” (NISSAN CHEMICAL CORPORATION, priority 2019, published 2023)
